# Assay results as given in PMC7026080, “Phenotypic high-throughput screening platform identifies novel chemotypes for necroptosis inhibition” (Cell Death Discovery, 2020).
# Tests used:
# [1] = Caco-2 cell-based permeability assay; assay type: in vitro ADME; conditions: human
# Jurkat E6.1 cells = experiment: Apoptosis modulation, caspase-3/-7 activity in Jurkat E6.1 cells + CHX, 8 h; assay type: cell-based, human; conditions: Jurkat E6.1 + 0.5 μg/mL CHX
# Description: Since apoptosis and necroptosis share key molecular players[20] and some RIPK3 necroptosis inhibitors may induce caspase-dependent cytotoxicity, hit compounds were tested for modulation of apoptosis activity in step three of the HTS workflow. Preliminary tests prior to screening encompassed the evaluation of several apoptosis inducers, such as FasL, doxorubicin, cycloheximide (CHX) and staurosporine, for their capability to modulate caspase-3/-7 activity in human Jurkat E6.1 T-cells, using Z-VAD-FMK and SN-2668/Nec-1 as negative and positive controls, respectively. […]
# Adenylate kinase (AK) and lactate dehydrogenase (LDH) release from damaged cells were measured using the Toxilight BioAssay Kit (Lonza, Basel, Switzerland) and the Cytotoxicity Detection Kit (Roche Diagnostics GmbH, Mannheim, Germany), respectively. Adenosine triphosphate (ATP) metabolism was evaluated using CellTiter-Glo^TM Luminescent Cell Viability Assay (Promega, Madison, WI, USA). Apoptosis was determined by the measurement of caspase-3/-7 activity using the Caspase-Glo® 3/7 Assay (Promega) according to the manufacturer’s instructions. Cellular metabolic activity was measured using CellTiter 96® Aqueous Non-Radioactive Cell Proliferation (MTS) Assay (Promega). […]
# Primary high-throughput screen. […] Eight hours after co-incubation of L929 cells with mTNF-α and test compounds, AK release was evaluated. […]
# [2] = Mouse pharmacokinetics, i.v.; assay type: in vivo; conditions: plasma, iv, male C57BL/6J mice, 5 mg/kg i.v.; for AUC: read-out: Mouse AUC (in vivo); for Cmax: read-out: Mouse Cmax (in vivo); for clearance: read-out: Mouse clearance (in vivo) rate; for half-life: read-out: Mouse half-life (in vivo) T1/2 (converted); for Tmax: read-out: Tmax (in vivo)
# Description: Pharmacokinetic measurements. Pharmacokinetic studies were performed in male C57BL/6J mice by Pharmaron (Pharmaron Beijing Co Ltd, Beijing, China). Compound (5 mg/kg body weight) was administered intravenously in vehicle (57% PBS, 32% DMSO, 4% PEG 400, 3% ethanol, 4% Tween 80). Blood samples obtained postdosing were collected in plastic microcentrifuge tubes containing EDTA-K2 and centrifuged at 4000 × g for 5 min to obtain plasma. The concentration of compound in plasma samples was determined using a liquid chromatography-tandem mass spectrometry (LC-MS/MS) method by monitoring transition from m/z 541 to 383 in ESI-positive mode. PK parameters were calculated by non-compartmental model using Phoenix WinNonlin v. 6.1 (Pharsight Corp, Certara, St. Louis, MO, USA).
Structure (SMILES),Papp A→B [1] [×10⁻⁶ cm/s],Papp B→A [1] [×10⁻⁶ cm/s],Modulation of caspase-3/-7 activity (apoptosis) (Jurkat E6.1 cells),AUC [2] [µM·h],Cmax [2] [µM],clearance [2] [mL/min/kg],half-life [2] [min],Tmax [2] [min],efflux ratio [1]
O=C(c1cnn(Cc2ccccc2)c1)N1CCOc2ccccc2C1 [SN-6109],31,16,no apoptosis modulation,2.34,10.2,107,18.6,1.8,–
"CN1C(=O)C(Cc2c[nH]c3ccccc23)NC1=S (centres unmarked) [Nec-1, necrostatin-1]",38,14,failed to modulate caspase activity,3.21,11.3,101,26.4,1.8,0.36
